{"source": "PubChem BioAssay (NCI)", "test_in_all_cases": "NCI anticancer screen, dose series, 384-well format", "key": {"LOX IMVI melanoma": {"test_system": "LOX IMVI melanoma"}, "MDA-MB-468 breast": {"test_system": "MDA-MB-468 breast"}, "PC-3 prostate": {"test_system": "PC-3 prostate"}, "NCI-H226 lung": {"test_system": "NCI-H226 lung"}, "MOLT-4 leukemia": {"test_system": "MOLT-4 leukemia"}, "EKVX NSCLC": {"test_system": "EKVX NSCLC"}, "MDA-MB-435 melanoma": {"test_system": "MDA-MB-435 melanoma"}, "SK-MEL-2 melanoma": {"test_system": "SK-MEL-2 melanoma"}, "RPMI-8226 leukemia": {"test_system": "RPMI-8226 leukemia"}, "SN12C renal": {"test_system": "SN12C renal"}, "K-562 leukemia": {"test_system": "K-562 leukemia"}, "COLO 205 colon": {"test_system": "COLO 205 colon"}, "ACHN renal": {"test_system": "ACHN renal"}, "786-0 renal": {"test_system": "786-0 renal"}, "NCI-H460 NSCLC": {"test_system": "NCI-H460 NSCLC"}, "NCI-H522 lung": {"test_system": "NCI-H522 lung"}, "NCI-H322M lung": {"test_system": "NCI-H322M lung"}, "OVCAR-8 ovarian": {"test_system": "OVCAR-8 ovarian"}, "HOP-62 NSCLC": {"test_system": "HOP-62 NSCLC"}, "DU-145 prostate": {"test_system": "DU-145 prostate"}, "HOP-92 NSCLC": {"test_system": "HOP-92 NSCLC"}, "CAKI-1 renal": {"test_system": "CAKI-1 renal"}, "T-47D breast": {"test_system": "T-47D breast"}, "SR leukemia": {"test_system": "SR leukemia"}, "MCF7 breast": {"test_system": "MCF7 breast"}, "KM12 colon": {"test_system": "KM12 colon"}, "A549 NSCLC": {"test_system": "A549 NSCLC"}, "SW-620 colon": {"test_system": "SW-620 colon"}, "MDA-MB-231 breast": {"test_system": "MDA-MB-231 breast"}, "SNB-19 CNS": {"test_system": "SNB-19 CNS"}, "UACC-62 melanoma": {"test_system": "UACC-62 melanoma"}, "MALME-3M melanoma": {"test_system": "MALME-3M melanoma"}, "SK-MEL-28 melanoma": {"test_system": "SK-MEL-28 melanoma"}, "OVCAR-3 ovarian": {"test_system": "OVCAR-3 ovarian"}, "SK-MEL-5 melanoma": {"test_system": "SK-MEL-5 melanoma"}, "HCT-15 colon": {"test_system": "HCT-15 colon"}, "HCT-116 colon": {"test_system": "HCT-116 colon"}, "SF-295 CNS": {"test_system": "SF-295 CNS"}, "U251 glioblastoma": {"test_system": "U251 glioblastoma"}, "SK-OV-3 ovarian": {"test_system": "SK-OV-3 ovarian"}, "M14 melanoma": {"test_system": "M14 melanoma"}, "SF-539 CNS": {"test_system": "SF-539 CNS"}, "OVCAR-4 ovarian": {"test_system": "OVCAR-4 ovarian"}, "HCC-2998 colon": {"test_system": "HCC-2998 colon"}, "RXF 393 renal": {"test_system": "RXF 393 renal"}, "UACC-257 melanoma": {"test_system": "UACC-257 melanoma"}, "SF-268 CNS": {"test_system": "SF-268 CNS"}}, "note": "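GI50 is the concentration that inhibits growth by half. TGI: total growth inhibition.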", "data": [{"smiles": "CC(F)(F)c1cc(F)ccc1-c1sc2cc(O)ccc2c1Oc1ccc(/C=C/C(=O)O)cc1", "values": [{"measurement": "GI50", "setting": "LOX IMVI melanoma", "result": 13.5, "unit": "µM"}, {"measurement": "TGI", "setting": "LOX IMVI melanoma", "result": 26.7, "unit": "µM"}, {"measurement": "GI50", "setting": "MDA-MB-468 breast", "result": 11.7, "unit": "µM"}, {"measurement": "TGI", "setting": "MDA-MB-468 breast", "result": 26.6, "unit": "µM"}, {"measurement": "GI50", "setting": "PC-3 prostate", "result": 13.9, "unit": "µM"}, {"measurement": "TGI", "setting": "PC-3 prostate", "result": 28.1, "unit": "µM"}, {"measurement": "GI50", "setting": "NCI-H226 lung", "result": 20, "unit": "µM"}, {"measurement": "TGI", "setting": "NCI-H226 lung", "result": 40.3, "unit": "µM"}, {"measurement": "GI50", "setting": "MOLT-4 leukemia", "result": 13.3, "unit": "µM"}, {"measurement": "TGI", "setting": "MOLT-4 leukemia", "result": 26.1, "unit": "µM"}, {"measurement": "GI50", "setting": "EKVX NSCLC", "result": 16.9, "unit": "µM"}, {"measurement": "TGI", "setting": "EKVX NSCLC", "result": 37.9, "unit": "µM"}, {"measurement": "GI50", "setting": "MDA-MB-435 melanoma", "result": 3.24, "unit": "µM"}, {"measurement": "TGI", "setting": "MDA-MB-435 melanoma", "result": 12.8, "unit": "µM"}, {"measurement": "GI50", "setting": "SK-MEL-2 melanoma", "result": 13.6, "unit": "µM"}, {"measurement": "TGI", "setting": "SK-MEL-2 melanoma", "result": 28.9, "unit": "µM"}, {"measurement": "GI50", "setting": "RPMI-8226 leukemia", "result": 11, "unit": "µM"}, {"measurement": "TGI", "setting": "RPMI-8226 leukemia", "result": 23.2, "unit": "µM"}, {"measurement": "GI50", "setting": "SN12C renal", "result": 20.1, "unit": "µM"}, {"measurement": "TGI", "setting": "SN12C renal", "result": 40.5, "unit": "µM"}, {"measurement": "GI50", "setting": "K-562 leukemia", "result": 10.9, "unit": "µM"}, {"measurement": "TGI", "setting": "K-562 leukemia", "result": 24.4, "unit": "µM"}, {"measurement": "GI50", "setting": "COLO 205 colon", "result": 16.5, "unit": "µM"}, {"measurement": "TGI", "setting": "COLO 205 colon", "result": 31.7, "unit": "µM"}, {"measurement": "GI50", "setting": "ACHN renal", "result": 17, "unit": "µM"}, {"measurement": "TGI", "setting": "ACHN renal", "result": 37.8, "unit": "µM"}, {"measurement": "GI50", "setting": "786-0 renal", "result": 14.6, "unit": "µM"}, {"measurement": "TGI", "setting": "786-0 renal", "result": 33.4, "unit": "µM"}, {"measurement": "GI50", "setting": "NCI-H460 NSCLC", "result": 17.6, "unit": "µM"}, {"measurement": "TGI", "setting": "NCI-H460 NSCLC", "result": 31.8, "unit": "µM"}, {"measurement": "GI50", "setting": "NCI-H522 lung", "result": 8.38, "unit": "µM"}, {"measurement": "TGI", "setting": "NCI-H522 lung", "result": 21.3, "unit": "µM"}, {"measurement": "GI50", "setting": "NCI-H322M lung", "result": 14.4, "unit": "µM"}, {"measurement": "TGI", "setting": "NCI-H322M lung", "result": 33.6, "unit": "µM"}, {"measurement": "GI50", "setting": "OVCAR-8 ovarian", "result": 25.4, "unit": "µM"}, {"measurement": "TGI", "setting": "OVCAR-8 ovarian", "result": "> 100", "unit": "µM"}, {"measurement": "GI50", "setting": "HOP-62 NSCLC", "result": 9.88, "unit": "µM"}, {"measurement": "TGI", "setting": "HOP-62 NSCLC", "result": 21.8, "unit": "µM"}, {"measurement": "GI50", "setting": "DU-145 prostate", "result": 17.4, "unit": "µM"}, {"measurement": "TGI", "setting": "DU-145 prostate", "result": 42.3, "unit": "µM"}, {"measurement": "GI50", "setting": "HOP-92 NSCLC", "result": 16.1, "unit": "µM"}, {"measurement": "TGI", "setting": "HOP-92 NSCLC", "result": 35.3, "unit": "µM"}, {"measurement": "GI50", "setting": "CAKI-1 renal", "result": 15.1, "unit": "µM"}, {"measurement": "TGI", "setting": "CAKI-1 renal", "result": 29.9, "unit": "µM"}, {"measurement": "GI50", "setting": "T-47D breast", "result": 11.2, "unit": "µM"}, {"measurement": "TGI", "setting": "T-47D breast", "result": 25.9, "unit": "µM"}, {"measurement": "GI50", "setting": "SR leukemia", "result": 2080, "unit": "nM"}, {"measurement": "TGI", "setting": "SR leukemia", "result": 4.33, "unit": "µM"}, {"measurement": "TGI", "setting": "MCF7 breast", "result": 14, "unit": "µM"}, {"measurement": "GI50", "setting": "KM12 colon", "result": 12.7, "unit": "µM"}, {"measurement": "TGI", "setting": "KM12 colon", "result": 25.5, "unit": "µM"}, {"measurement": "GI50", "setting": "A549 NSCLC", "result": 13.8, "unit": "µM"}, {"measurement": "TGI", "setting": "A549 NSCLC", "result": 31.2, "unit": "µM"}, {"measurement": "GI50", "setting": "SW-620 colon", "result": 16.9, "unit": "µM"}, {"measurement": "TGI", "setting": "SW-620 colon", "result": 30.9, "unit": "µM"}, {"measurement": "GI50", "setting": "MDA-MB-231 breast", "result": 15.7, "unit": "µM"}, {"measurement": "TGI", "setting": "MDA-MB-231 breast", "result": 29.5, "unit": "µM"}, {"measurement": "GI50", "setting": "SNB-19 CNS", "result": 12.7, "unit": "µM"}, {"measurement": "TGI", "setting": "SNB-19 CNS", "result": 25.6, "unit": "µM"}, {"measurement": "GI50", "setting": "UACC-62 melanoma", "result": 9.94, "unit": "µM"}, {"measurement": "TGI", "setting": "UACC-62 melanoma", "result": 21.6, "unit": "µM"}, {"measurement": "GI50", "setting": "MALME-3M melanoma", "result": 13.5, "unit": "µM"}, {"measurement": "TGI", "setting": "MALME-3M melanoma", "result": 27.8, "unit": "µM"}, {"measurement": "GI50", "setting": "SK-MEL-28 melanoma", "result": 11.5, "unit": "µM"}, {"measurement": "TGI", "setting": "SK-MEL-28 melanoma", "result": 32.9, "unit": "µM"}, {"measurement": "GI50", "setting": "OVCAR-3 ovarian", "result": 12.6, "unit": "µM"}, {"measurement": "TGI", "setting": "OVCAR-3 ovarian", "result": 25.8, "unit": "µM"}, {"measurement": "GI50", "setting": "SK-MEL-5 melanoma", "result": 12.2, "unit": "µM"}, {"measurement": "TGI", "setting": "SK-MEL-5 melanoma", "result": 24.7, "unit": "µM"}, {"measurement": "GI50", "setting": "HCT-15 colon", "result": 11.3, "unit": "µM"}, {"measurement": "TGI", "setting": "HCT-15 colon", "result": 24, "unit": "µM"}, {"measurement": "GI50", "setting": "HCT-116 colon", "result": 15.6, "unit": "µM"}, {"measurement": "TGI", "setting": "HCT-116 colon", "result": 30.5, "unit": "µM"}, {"measurement": "GI50", "setting": "SF-295 CNS", "result": 7.72, "unit": "µM"}, {"measurement": "TGI", "setting": "SF-295 CNS", "result": 21.6, "unit": "µM"}, {"measurement": "GI50", "setting": "U251 glioblastoma", "result": 12.6, "unit": "µM"}, {"measurement": "TGI", "setting": "U251 glioblastoma", "result": 25.3, "unit": "µM"}, {"measurement": "GI50", "setting": "SK-OV-3 ovarian", "result": 20.2, "unit": "µM"}, {"measurement": "TGI", "setting": "SK-OV-3 ovarian", "result": 43.5, "unit": "µM"}, {"measurement": "GI50", "setting": "M14 melanoma", "result": 11.6, "unit": "µM"}, {"measurement": "TGI", "setting": "M14 melanoma", "result": 25.8, "unit": "µM"}, {"measurement": "GI50", "setting": "SF-539 CNS", "result": 15.8, "unit": "µM"}, {"measurement": "TGI", "setting": "SF-539 CNS", "result": 29.8, "unit": "µM"}, {"measurement": "GI50", "setting": "OVCAR-4 ovarian", "result": 19.5, "unit": "µM"}, {"measurement": "TGI", "setting": "OVCAR-4 ovarian", "result": 74.9, "unit": "µM"}, {"measurement": "GI50", "setting": "HCC-2998 colon", "result": 18.2, "unit": "µM"}, {"measurement": "TGI", "setting": "HCC-2998 colon", "result": 32.3, "unit": "µM"}, {"measurement": "GI50", "setting": "RXF 393 renal", "result": 5, "unit": "µM"}, {"measurement": "TGI", "setting": "RXF 393 renal", "result": 18.5, "unit": "µM"}, {"measurement": "GI50", "setting": "UACC-257 melanoma", "result": 17, "unit": "µM"}, {"measurement": "TGI", "setting": "UACC-257 melanoma", "result": 36.4, "unit": "µM"}, {"measurement": "GI50", "setting": "SF-268 CNS", "result": 16.7, "unit": "µM"}, {"measurement": "TGI", "setting": "SF-268 CNS", "result": 37.2, "unit": "µM"}]}]}
